Experimental data reported in patent publication US20080200403A1, “9A-Carbamoyl and Thiocarbamoyl Azalides with Anti-Inflammatory Activity” (GLAXOSMITHKLINE, priority 2005, published 2008).
Read-outs that look alike come from different tables or passages of the source.

Tests used:
[1] = test system: granulocytes; assay: Inhibition of degranulation of granulocytes (elastase release); assay type: cell-based, human; details: for inhibition at 50 µM: Homo sapiens, read-out: Percentage of inhibition of degranulation of granulocytes
Procedure: (§1) Granulocytes were obtained from heparinized whole blood using density gradient centrifugation. Erythrocytes were sedimented on 3% dextran T-500 (Amersham Pharmacia Biotech AB, Uppsala, Sweden). Leukocytes were centrifuged on Ficoll (Amersham Pharmacia Biotech AB, Uppsala, Sweden) for 35 min at 600 g at 20° C. The pellet of granulocytes was cleared from remaining erythrocytes by a brief hypotonic lysis.
1×10^6 granulocytes, isolated as described above, were resuspended in RPMI-1640 medium (Institute of Immunology, Croatia), and were incubated with 10 or 50 μM of test compound together with cytochalasine B (5 μg/mL) for 2 h at 37° C. Degranulation then was induced by the addition of 0.1 μM fMLP (Sigma, USA) or 0.5 μM A23187 (Calbiochem, USA). The activity of free neutrophil elastase was determined with a chromogenic substrate specific for human neutrophil elastase, such as n-methoxysuccinyl-1-alanyl-1-alanyl-1-prolyl-lvalyl-p-niytoanlide (Sigma Chemical Company, St Louis, Mo., USA) Elastase activity, as a marker of primary granules, was assessed in supernatant using a spectrophotometer at an absorbance of 405 nm. Results are expressed as the percent of inhibition of degranulation in unstimulated cells, and in stimulated cells treated with fMLP or A23187.

[2] = test system: A549; assay: MTT cytotoxicity assay on A549 cell line; assay type: cell-based
Procedure: To determine whether the anti-inflammatory activity of the test compounds was due to observed inhibition of cytokine production and inhibition of proliferation in vitro, and was not a consequence of cellular cytotoxicity, measurement of succinate dehydrogenase activity in living cells was performed. Cells were cultured for 24 h in RPMI medium as described above at 37° C. in the presence of the test compounds at concentrations of 50 μM and 12.5 μM. MTT [3-(4,5-dimethylthiazole-2-yl)-2,5-diphenyl tetrazolium bromide] (Promega, USA), a detection reagent, was then added and the cultures were incubated for 0.5-2 h. The amount of MTT-Formazan produced was determined using a spectrophotometer at 490 nm (Mosmann, J. Imnunol. Methods, 1983, 65: 55-63). Percentage of viable cells was calculated using the following formula:
% viable cells=([…]OD490 treated cells/OD490 nontreated cells)×100

[3] = test system: TNF-α; assay: Lipopolysaccharide induced TNF-α production in Balb/cJ mice; assay type: in vivo; details: LPS stimulated Balb/cJ mice, 10 mg/kg b.w. intraperitoneally, plasma 90 min after challenge
Procedure: Male Balb/cJ mice (Iffa Credo, France), 18 animals weighing 25-33 g were randomly grouped (7 animals were treated with the test compounds, 7 were in positive control and 4 in negative control). Substances, as well as vehiculum [0.125% carboxymethyl-cellulose (Sigma, USA)], were administered intraperitoneally. Substances were administered in the dose of 10 mg/kg b.w. Administered volume was 10 mL/kg b.w. Thirty minutes later, lipopolysaccharide (LPS) (Sigma, USA) solution in sterile saline at concentration and volume of 25 μg/0.2 mL of sterile saline/mouse was intraperitoneally administered to each animal except those in negative control. Ninety minutes after the challenge all animals were bled to death by puncturing a carotis communis. Plasma concentration of TNF-α was determined by sandwich ELISA, using capture and detection antibodies (R&D, USA) according to manufacturer's recommendations. Results are presented in the following table as % of inhibition of TNF-α production in comparison to positive control (challenged but not treated animals).

[4] = test system: human granulocytes; assay: Oxidative burst inhibition assay on granulocytes (luminol); assay type: cell-based; details: Homo sapiens; for inhibition at 12.5 µM: compound 12.5 μM; for inhibition at 50 µM: compound 50 μM
Procedure: as §1
The effect of compounds on oxidative burst was investigated in vitro with oxidative burst assay in human granulocytes, isolated as described above. Assay was done in 96 well plate. Blood was obtained from healthy volunteers (Transfusion Center, Croatia) and human granulocytes were isolated by dextran sedimentation and ficoll extraction method, as described above. In each well 50000 isolated granulocytes were suspended in 100 μL of DMEM. Final concentrations of the tested compounds were 50 and 12.5 μM. Than, 50 μL of luminol (c=0.25 mg/mL) was added. Luminol as a detector of oxidative burst react with superoxide and light is produced as one of the reaction products. Subsequently, 50 μL of stimuli, phorbol-12-myristate acetate (PMA) (c=33 ng/mL) or Zymosan (c=120 μg/mL), were added.

[5] = test system: IL-2; assay: Inhibition of IL-2 production by stimulated human PBMC in vitro; assay type: cell-based; details: PHA stimulated, 3 days
Procedure: (§2) Heparinized peripheral blood was obtained from healthy donors, and peripheral blood mononuclear cells (PBMC) were isolated by Histopaque 1077 (Sigma, USA) density centrifugation on 400 g for 30 minutes. Collected PBMC were centrifuged in plasma on 400 g/10 min, resuspended and washed in RPMI 1640 (Institute of Immunology, Croatia) by centrifugation.
(§3) Peripheral blood mononuclear cells (PBMC), isolated as described above, were seeded in a 48-well plate at a concentration of 1×10^6 cells per well in the RPMI culture medium described above. Cells were stimulated with 10 μg/mL phytohaemagglutinin (PHA) (Sigma, USA) and incubated at 37° C., 5% CO2 in 90% humidity with tested compounds (10 and 50 μM) for 3 days. Cytokine concentrations were determined in supernatants by sandwich ELISA, using capture and detection antibodies (R&D, USA) according to the manufacturer's recommendations.
(§4) Inhibition (as percentage) was calculated using the following formula: % inhibition=(1−concentration of cytokines in sample/concentration of cytokines in positive control)×100. The positive control refers to stimulated samples, not treated with substances.

[6] = test system: IL-5; assay: Inhibition of IL-5 production by stimulated human PBMC in vitro; assay type: cell-based; details: PHA stimulated, 3 days
Procedure: as §2, §3, §4

[7] = A23187 0.5 μM stimulated, compound 50 μM
[8] = fMLP 0.1 μM stimulated, compound 50 μM
[9] = PMA stimulated granulocytes, read-out: % inhibition of Oxidative burst PMA
[10] = Zymosan stimulated granulocytes, read-out: % inhibition of Oxidative burst Zymosan
[11] = A23187 0.5 μM stimulated, compound 10 μM
[12] = fMLP 0.1 μM stimulated, compound 10 μM

SMILES | Percentage of viable cells after treatment ([2]; human, 24 h, 12.5 μM) [%] | Percentage of viable cells after treatment ([2]; human, 24 h, 50 μM) [%] | TNF-α (% inhibition) [3] [%] | inhibition at 12.5 µM [4, 9] [%] | inhibition at 50 µM [4, 9] [%] | inhibition at 12.5 µM [4, 10] [%] | inhibition at 50 µM [4, 10] [%] | Percentage of inhibition of IL-2 production ([5]; compound 10 μM) [%] | Percentage of inhibition of IL-2 production ([5]; compound 50 μM) [%] | Percentage of inhibition of IL-5 production ([6]; compound 10 μM) [%] | Percentage of inhibition of IL-5 production ([6]; compound 50 μM) [%] | Percentage of inhibition of degranulation of granulocytes [1, 11] [%] | Percentage of inhibition of degranulation of granulocytes [1, 7] [%] | Percentage of inhibition of degranulation of granulocytes [1, 12] [%] | Percentage of inhibition of degranulation of granulocytes [1, 8] [%] | further results
CC[C@H]1OC(=O)[C@H](C)[C@@H](O[C@H]2C[C@@](C)(OC)[C@@H](O)[C@H](C)O2)[C@H](C)[C@@H](O[C@@H]2O[C@H](C)C[C@H](N(C)C)[C@H]2O)[C@](C)(O)C[C@@H](C)CN(C)[C@H](C)[C@@H](O)[C@]1(C)O [Azithromycin, azithromycin, reference compound] | 100 | 100 | 54 | 0 | 20 | 0 | 16 | – | – | – | – | – | – | – | – | inhibition at 50 µM [1, 7]: 16%; inhibition at 50 µM [1, 8]: 36%
CC[C@H]1OC(=O)[C@H](C)[C@@H](O[C@H]2C[C@@](C)(OC)[C@@H](O)[C@H](C)O2)[C@H](C)[C@@H](O[C@@H]2O[C@H](C)C[C@H](N(C)C)[C@H]2O)[C@](C)(OC)C[C@@H](C)C(=O)[C@H](C)[C@@H](O)[C@]1(C)O [Clarithromycin, clarithromycin, reference compound] | 100 | 100 | 63 | 0 | 3 | 4 | 19 | – | – | – | – | – | – | – | – | inhibition at 10 µM ([5]; Homo sapiens, 72 h, compound 10 μM, read-out: Percentage of inhibition of IL-2 production): 0%; inhibition at 50 µM ([5]; Homo sapiens, 72 h, compound 50 μM, read-out: Percentage of inhibition of IL-2 production): 3%; inhibition at 10 µM ([6]; Homo sapiens, 72 h, compound 10 μM, read-out: Percentage of inhibition of IL-5 production): 13%; inhibition at 50 µM ([6]; Homo sapiens, 72 h, compound 50 μM, read-out: Percentage of inhibition of IL-5 production): 47%
CCC1OC(=O)C(C)C(O)C(C)C(OC2OC(C)CC(N(C)C)C2O)C(C)(O)CC(C)CN(C(=S)NCc2ccccc2)C(C)C(O)C1(C)O (centres unmarked) [Compound 1] | – | – | 31 | – | – | – | – | 61 | 95 | 14 | 73 | 20 | 27 | 37 | 72 | –
CCC1OC(=O)C(C)C(OC2CC(C)(OC)C(O)C(C)O2)C(C)C(OC2OC(C)CC(N(C)C)C2O)C(C)(O)CC(C)CN(C(=S)Nc2cccc(F)c2)C(C)C(O)C1(C)O (centres unmarked) [Compound 3] | – | – | 29 | – | – | – | – | 86 | 98 | 80 | 78 | 2 | 75 | 25 | 33 | Percentage of viable cells after treatment ([2]; A549, 24 h, compound 12.5 μM): 100%; Percentage of viable cells after treatment ([2]; A549, 24 h, compound 50 μM): >90%
CC[C@H]1OC(=O)[C@H](C)[C@@H](O[C@H]2C[C@@](C)(OC)[C@@H](O)[C@H](C)O2)[C@H](C)[C@@H](O[C@@H]2O[C@H](C)C[C@H](N(C)C)[C@H]2O)[C@](C)(O)C[C@@H](C)CN(C(=S)Nc2cccc(C(F)(F)F)c2)[C@H](C)[C@@H](O)[C@]1(C)O [Compound 4] | – | – | – | 16 | 85 | 0 | 100 | – | – | – | – | – | – | – | – | –
CC[C@H]1OC(=O)[C@H](C)[C@@H](O[C@H]2C[C@@](C)(OC)[C@@H](O)[C@H](C)O2)[C@H](C)[C@@H](O[C@@H]2O[C@H](C)C[C@H](N(C)C)[C@H]2O)[C@](C)(O)C[C@@H](C)CN(C(=S)Nc2ccccc2F)[C@H](C)[C@@H](O)[C@]1(C)O [Compound 5] | 100 | 100 | 50 | – | – | – | – | – | – | – | – | – | – | – | – | –
